# According to patent US20030143559A1, “Novel estrogen receptor ligand binding domain variants and novel ligands and pharmaceutical compositions” (priority 2001, published 2003):
# Substitutions are numbered along the chain they refer to.
# Assays:
# ER-LBD H524G = target: T1, ER-LBD H524G (Homo sapiens, UniProt P03372, H524G); assay: ER-LBD H524G transactivation, cell-based reporter gene assay
# T1 construct: expressed in transfected cells
# T1 sequence (P03372 311-547 H524G limits assumed): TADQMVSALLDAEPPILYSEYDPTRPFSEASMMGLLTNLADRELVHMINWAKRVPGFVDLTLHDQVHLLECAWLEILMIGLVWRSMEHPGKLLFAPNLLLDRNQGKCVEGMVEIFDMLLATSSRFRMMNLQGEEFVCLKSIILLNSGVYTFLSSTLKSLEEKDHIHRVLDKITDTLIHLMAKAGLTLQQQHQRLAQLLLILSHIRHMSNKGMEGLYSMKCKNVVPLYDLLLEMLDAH
# Description: (§1) In order to evaluate the ability of the fusion proteins C7LBD A, B, and the related LBD mutants to regulate transgene expression, a standard co-transfection reporter assay was performed. A reporter construct, henceforth known as 6×2C7pGL3Luc, containing six copies of a directly repeated C7 binding site (6×2C7) inserted upstream of an SV40 promoter fragment and reporter gene encoding firefly luciferase (pGL3Pro; Promega) was transfected along with the designated fusion protein and assayed as described below. Note the consensus C7 binding site is 5′-GCG TGG GCG-3′.
# (§2) Cultured cells (HeLa, Cos, Hep3B or other) were seeded at 5×10^4 cells/well in a 24 well plate prior to the day of transfection in DMEM Phenol-free media, supplemented with L-glutamine and 5% (v/v) charcoal-dextran stripped Fetal Bovine serum (sFBS). Cells were transfected using the Qiagen Superfect Transfection method. For each well 1 μg of total DNA, containing 0.5 μg luciferase reporter plasmid (6×2C7pGL3Luc), 0.1 μg of chimeric activator DNA (e.g., C7LBDA, C7LBDB, or mutants thereof ), and 0.4 μg of an inert carrier plasmid DNA (p3Kpn), was mixed with 60 μL of DMEM phenol-free/serum free media, and 5 μL of Superfect reagent. In general, about 10 ng to about 0.5 μg of chimeric activator DNA was used for each well.
# The mixture was vortexed for 10 seconds and incubated at room temperature for 10 minutes, followed by the addition of 350 μL of DMEM phenol-free 5% sFBS media. Cells were washed once with Dulbecco's phosphate buffered saline (DPBS) and the transfection mixture placed on the cells. Cells were washed once with DPBS following a 2.5 hour incubation at 37 degrees Celsius, and re-fed with DMEM Phenol-free 5% sFBS media.
# Cells were treated 24 hours later by washing once with DPBS and adding 200 μL 1X reporter lysis buffer (Promega). Plates were frozen at -80° C. and on the day of assay thawed at room temperature for 1.5 hours on an orbital shaker at 100 RPM. After allowing for cellular debris to settle, lysate was transferred to a new tube, diluted 1:10 with 1X reporter lysis buffer and 10 μL transferred to 96 well opaque plates.
# The sequence of the oligonucleotides used for the H524G modification were […] […] Mutated plasmids were isolated and their sequence confirmed.
# H524A mutant = target: T2, H524A mutant (Homo sapiens, UniProt P03372, H524A); assay: H524A mutant activation, cell-based reporter gene assay; details: 10 nM ligand
# T2 construct: plasmids encoding the fusion proteins ER-LBD-C7LBDa and C7LBDb to substitute either alanine or glycine for histidine at residue 524; expressed in transfected cells
# T2 sequence (P03372 311-547 H524A limits assumed): T1 sequence (P03372 311-547 H524G limits assumed) with G214A
# Description: as §1
# as §2, with “well. […]” for “well.”
# wild-type ER = target: T3, wild-type ER (Homo sapiens, UniProt P03372); assay: Inhibition of E2 activity on wild-type ER, COS-7 cells with pHEGO and ERE luciferase reporter; type: cell-based; details: IC50 ± STDEV, pHEGO and pERETkLuc, E2 (3 nM) + 0.1 to 1000 nM compound
# T3 construct: expressed in transfected cells; host or cells: COS-7
# T3 sequence (P03372 1-595): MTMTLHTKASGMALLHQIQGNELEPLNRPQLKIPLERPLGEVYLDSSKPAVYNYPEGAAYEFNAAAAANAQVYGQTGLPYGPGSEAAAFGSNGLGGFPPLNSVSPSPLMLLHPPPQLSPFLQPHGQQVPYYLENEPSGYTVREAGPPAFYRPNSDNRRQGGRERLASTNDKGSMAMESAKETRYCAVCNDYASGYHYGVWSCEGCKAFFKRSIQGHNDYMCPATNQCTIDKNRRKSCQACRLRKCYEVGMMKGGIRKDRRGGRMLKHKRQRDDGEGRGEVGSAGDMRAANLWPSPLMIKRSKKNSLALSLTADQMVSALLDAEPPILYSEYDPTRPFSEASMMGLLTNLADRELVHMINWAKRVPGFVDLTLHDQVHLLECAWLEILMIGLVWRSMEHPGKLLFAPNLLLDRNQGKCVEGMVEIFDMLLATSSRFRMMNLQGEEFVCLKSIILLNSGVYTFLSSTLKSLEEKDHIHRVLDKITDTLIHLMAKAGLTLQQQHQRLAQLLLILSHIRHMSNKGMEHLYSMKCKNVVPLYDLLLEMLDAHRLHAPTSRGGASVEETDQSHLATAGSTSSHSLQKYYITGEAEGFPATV
# Description: For transfection, 0.5 microgram of pERE2tkluc reporter plasmid, 20 ng of pHEGO, and 0.5 microgram of pCIneo inert carrier DNA were combined with 60 microliter serum-free DMEM and 5 microliter Qiagen Superfect transfection reagent, vortexed for 10s, and set at room temperature for 10 min. Each sample was diluted with 350 microliters of steroid-free media, mixed, and added to each well. Following 2 hr 30 min incubation at 37° C., cells were washed once with Dulbecco's phosphate buffered saline (DPBS), and refed with steroid-free media. […] Approximately 24 hr after treatment, cells were washed once with DPBS, then 200 microliter of reporter lysis buffer was added per well and frozen at −80° C. Cells were thawed at room temperature on an orbital shaker for 1 hr 30 min. A 10 microliter aliquot of lysate was transferred to 96 well opaque plates, and relative luciferase units (RLU) determined on a luminometer using the appropriate firefly luciferase substrate.
# Note that the nonspecific activity is a noncompetable element in the assay system.
# In order to dissolve them completely, all the solutions were warmed in 55° C. or boiled water bath for 10 to 20 min before use. The DMSO in cell culture medium was maintained to 0.01% for all the drug concentration tested as well as the vehicle control.
# Av3-H524G = target: T4, Av3-H524G (Homo sapiens, UniProt P03372, H524G); assay: Transactivation on adenoviral (Av3)-delivered ER variant, luciferase in HeLa cells; type: cell-based; details: 100 nM test compound, 24 hrs (FIG. 5)
# T4 construct: fragment B=ER amino acids 258-554; expressed in transfected cells; host or cells: HeLa cells transduced with Av3 or gutless adenoviral vector
# T4 sequence (P03372 258-554 H524G): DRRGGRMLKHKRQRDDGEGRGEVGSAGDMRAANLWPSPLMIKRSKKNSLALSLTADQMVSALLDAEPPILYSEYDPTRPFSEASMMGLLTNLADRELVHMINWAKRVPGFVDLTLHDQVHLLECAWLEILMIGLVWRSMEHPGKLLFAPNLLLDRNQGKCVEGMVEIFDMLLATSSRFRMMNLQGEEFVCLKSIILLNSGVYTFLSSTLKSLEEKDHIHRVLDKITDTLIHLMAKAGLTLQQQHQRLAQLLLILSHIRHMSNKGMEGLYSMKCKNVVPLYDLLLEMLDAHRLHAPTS
# From the text: Xu et al., Molecular Therapy, 3:262-273, 2000.
# [1] = target: T5, 524G transcription factor (Homo sapiens, UniProt P03372, H524G); assay: In vitro inducible luciferase expression with gutless adenoviral transcription factor vector in Hela cells; type: cell-based
# T5 construct: fragment B=ER amino acids 258-554; expressed in transfected cells; host or cells: HeLa cells transduced with Av3 or gutless adenoviral vector
# T5 sequence (P03372 258-554 H524G): T4 sequence (P03372 258-554 H524G)
# [2] = BIV lentiviral reporter vector without activator, eGFP expression by FACS in 293T cells; type: cell-based; details: reporter BIVC2H2FOSEGFP, activator none; 100 nM, forty-eight hours
# From the text: One of the reporter constructs described above was introduced individually into 3×10^6 293T cells along with other components of the BIV four component packaging system (U.S. patent application of Luo et al. filed Feb. 4, 2002 entitled “Recombinant Bovine Immunodeficiency Virus Based Gene Transfer System” (Atty Docket No. 2048-127; serial number to be assigned) and Matukonis et al., (“Development of Second and Third Generation of Bovine Immunodeficiency Virus Based Gene Transfer Systems” Human Gene Therapy, in press (2002)) by CaPO4-mediated transient transfection. Eighteen hours post transfection, media were replaced with fresh DMEM containing 10% FBS and 200 mM butyric acid. Forty-eight hours later, conditioned media were collected from the transfected cells. Two mls of conditioned media from each transfection plus 2 mls of DMEM/FBS were added to 2×10^5 293T cells in individual wells of a six well tissue culture plate. In addition, 2 mls of conditioned media from either the pBIVC2H2FOSeGFP transfections were combined with 2 mls of conditioned media from the pBIVMNDC7 or pBIVMND2AS transfections and added to 2×10^5 293T cells. 8 μg/ml protamine sulfate were added to each transduction reaction. Four hours later, conditioned media was removed from the transduced cells and replaced with fresh DMEM/FBS. […]
Molecule,degree of induction of H524G as compared to estrogen (ER-LBD H524G; 10 nM),"fold induction at 0.01 µM (ER-LBD H524G; 10 nM ligand, H524G (FIG. 6))","fold induction at 10 nM (ER-LBD H524G; 10 nM ligand, H524G (FIG. 6)) [fold]","EC50 (ER-LBD H524G; Table 3, read-out: EC50 ± STDEV) [nM]",fold induction at 0.01 µM (H524A mutant),IC50 (wild-type ER) [nM],luciferase activity over the basal level (Av3-H524G) [times],Fold Induction ([1]; 100 nM ligand vs without ligand) [fold],"Luciferase Expression Levels (Relative Light Units) ([1]; (+) induced with 100 nM ligand, mean +/− standard error (n = 4))",% Gated Cells [2] [%]
"C/C(=C(/c1ccc(O)cc1)c1ccc(OCCN(C)C)cc1)c1ccc(N2CCOCC2)cc1 [LBF580, 4-((1E)-1-{4-[2-(dimethylamino)ethoxy]phenyl}-2-(4-morpholin-4-ylphenyl)prop-1-enyl)phenol]",nine,138,140,≤ 25,4,253,16,8,285695 +/− 2331 Relative Light Units,–
4-hydroxytamoxifen [4-OHT],–,–,–,–,–,–,–,–,–,0.36
